We go through 1 compound from patent publication US6699833B1, “Pharmaceutical formulations for sustained drug delivery” (Praecis Pharmaceuticals, Inc., priority 1996, dated 2004).

Structures are written as SMILES. Where a SMILES comes first, the peptide text is derived from it. [ ]: non-standard residue; d: D form. dPhe(4-Cl) = N[C@H](Cc1ccc(Cl)cc1)C(=O)O; d2Nal = N[C@H](Cc1ccc2ccccc2c1)C(=O)O; Lys(iPr) = CC(C)NCCCC[C@H](N)C(=O)O; NMeY = CN[C@@H](Cc1ccc(O)cc1)C(=O)O; d3Pal = N[C@H](Cc1cccnc1)C(=O)O

The conditions of this data set: rat, in vivo.

Description: On day 30, the LHRH agonist Lupron™ (leuprolide) was injected into the rats. Plasma testosterone levels (in ng/ml; indicated by the open boxes in FIG. 2) were determined at various time points as a measure of the activity of the LHRH antagonist in the animal. Plasma levels of PPI-149 (in ng/ml) were also monitored in the animals (indicated by the closed boxes in FIG. 2).

As for `CC(=O)N[C@H](Cc1ccc2ccccc2c1)C(=O)N[C@H](Cc1ccc(Cl)cc1)C(=O)N[C@H](Cc1cccnc1)C(=O)N[C@@H](CO)C(=O)N(C)[C@@H](Cc1ccc(O)cc1)C(=O)N[C@H](CC(N)=O)C(=O)N[C@@H](CC(C)C)C(=O)N[C@@H](CCCCNC(C)C)C(=O)N1CCC[C@H]1C(=O)N[C@H](C)C(N)=O` [PPI-149, Ac-D-Nal^1,4-Cl-D-Phe^2, D-Pal^3, N-Me-Tyr^5, D-Asn^6, Lys(iPr)^8, D-Ala^10-LHRH] (Ac-[d2Nal][dPhe(4-Cl)][d3Pal]S[NMeY][dN]L[Lys(iPr)]P[dA]-NH2), the “day beyond which PPI-149 could not be detected in plasma” value was roughly 8 days.
